Experimental data published in PMC4350845, “Polyphosphatase PPN1 of Saccharomyces cerevisiae: Switching of Exopolyphosphatase and Endopolyphosphatase Activities” (PLoS ONE, 2015).

Target: T1, polyphosphatase PPN1 (Saccharomyces cerevisiae, UniProt Q04119)
T1 construct: recombinant, overexpressed in S. cerevisiae CRN/pMB1_PPN1 Sc and purified; proteolytically matured form of ~33 kDa on SDS-PAGE (precursor predicted 78 kDa); no tag mentioned
T1 sequence (Q04119 84-384): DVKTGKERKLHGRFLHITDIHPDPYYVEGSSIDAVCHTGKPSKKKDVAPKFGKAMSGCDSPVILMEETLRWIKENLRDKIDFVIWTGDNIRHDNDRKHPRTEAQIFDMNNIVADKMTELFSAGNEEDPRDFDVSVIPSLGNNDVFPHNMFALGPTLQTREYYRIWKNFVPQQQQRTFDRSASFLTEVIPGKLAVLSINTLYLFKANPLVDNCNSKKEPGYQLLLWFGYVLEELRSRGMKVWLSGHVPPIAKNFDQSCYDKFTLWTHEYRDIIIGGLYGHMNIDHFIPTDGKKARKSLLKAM
Assay: inhibition of exopolyphosphatase activity (Pi release from PolyP208)
Assay type: biochemical
Conditions: inhibitor; PolyP208 2.5 mM as Pi, 0.1 mM CoSO4, 200 mM NH4Cl, pH 7.2, 30 C

Row | Compound | % of control activity at 2.0 mM
1 | O=P(O)(O)OP(=O)(O)O [PPi] | PPi and PolyP3 inhibited Pi release
2 | O=P(O)(O)OP(=O)(O)OP(=O)(O)O [PolyP3] | PPi and PolyP3 inhibited Pi release
